From patent US10322032B2, “Absorbent article comprising a fragrance or odor control composition” (The Procter & Gamble Company, priority 2013, dated 2019)

Assays:
[1] = Kovats Retention Index by gas chromatography on DB-5 column against n-alkane standards; format: physicochemical; settings: GC, non-isothermal, C8-C22 n-alkane standards
From the text: Kovats Index as it is known in the art, is defined as the selective retention of perfume raw materials (PRMs) onto chromatographic columns based on the retention volume of the substance with respect to that to a homologous series of n-alkane standards.
The Kovats Index in the present application can be experimentally derived using an Agilent Technologies 6890 gas chromatogram with Flame Ionization Detector (FID), or equivalent using a DB-5 (5% phenyl-methylpolysiloxane) column 30 m×0.25 mm i.d., with a 0.25 micron film thickness available from Agilent Technologies. Chromatographic conditions are 1 mL/min of helium carrier with constant flow programming, a temperature program of 50° C. to 300° C. at […] temperature 350° C., split injection at 300° C. Different chromatographic conditions may be required to achieve separation of the analytes of interest and can be readily adjusted by one skilled in the art. A linear alkane hydrocarbon standard mix (C8-C22 available from Aldrich Chemical Company or equivalent) is injected and the retention time for each component is recorded. The test sample (appropriately diluted in a suitable solvent) is injected under the same conditions, and the retention time for each component of interest is recorded. The Kovats Index under non-isothermal conditions is calculated for each component of interest in the test sample using the equation: KI=100n+100[(tsubstance−tn)/(tn+1−tn)] Where: • t=the uncorrected retention time of a peak • unknown=the peak of interest • n=the number of carbon atoms in the smaller alkane whose peak is adjacent to the peak of interest

[2] = log P, n-octanol/water partition coefficient (EPA OPPTS 830.7550 shake flask method); format: physicochemical; settings: partitioning between octanol and water; for logP: n-octanol/water
From the text: The use of log P values is well known in the chemical arts as representing the relative affinity that a material has for partitioning between octanol and water, so that a material that partitions more readily into octanol would tend to be more lipophillic and have a higher log P value than a material that partitions less readily into octanol. […] 1996, under the title “Product Properties Test Guidelines—OPPTS 830.7550 Partition Coefficient (n-Octanol/Water), Shake flask method.” which description is incorporated herein by reference. In following this EPA method in all instances where a recommended procedure is described (such as number of rotations of the shaker) the recommended procedure should be followed. For the analytical determination of the substance in the two phases a skilled person will know what analytical method to use, gas chromatography (GC) can be preferably used, while HPLC can be used in case GC is not suitable.

Row | SMILES | KI (Kovats Retention Index) [1] | logP [2] | Log P [2]
1 | O=C(OC1CCCCC1)c1ccccc1O [Cyclohexyl salicylate] | 1821 | 4.15 | –
2 | O=C1CCCCCCCCCCCCCCO1 [Exaltolide] | 1882 | 4.81 | –
3 | O=C1CCCCCCCCC/C=C/CCCO1 [Habanolide] | 1862.9 | – | 4.32
4 | CCC(=O)OCC(C)(C)OC(C)C1CCCC(C)(C)C1 (stereo not shown) [Helvetolide] | 1773 | – | 5.56
5 | O=C(Oc1ccccc1)c1ccccc1O [Phenyl salicylate] | 1851.1 | 3.49 | –
6 | Cc1ccc(OC(=O)c2ccccc2O)cc1 [p-Cresyl salicylate] | 1944.5 | 4.06 | –
7 | O=C1CCCCC/C=C/CCCCCCCCO1 [trans-ambrettolide] | 1961.1 | – | 4.64

Results, then the compound that gave them:

Row | KI (Kovats Retention Index) [1] | logP [2] | Log P [2] | SMILES
8 | 1889.5 | 4.92 | – | CCCCC(CC)COC(=O)c1ccccc1O (stereo not shown) [2-Ethylhexyl salicylate]
9 | 1920.3 | 3.56 | – | O=C(OCc1ccccc1)c1ccccc1O [Benzyl salicylate]
10 | 1572.9 | 3.58 | – | CCCCOC(=O)c1ccccc1O [Butyl salicylate]
11 | 1616.4 | 3.74 | – | CC(C)CCOC(=O)c1ccccc1O [Isoamyl salicylate]
12 | 1655.3 | 3.05 | – | CC(C)=CCOC(=O)c1ccccc1O [Prenyl salicylate]
13 | 1668.8 | 4.09 | – | CCCCCOC(=O)c1ccccc1O [amyl salicylate]
14 | 1765.1 | 4.58 | – | CCCCCCOC(=O)c1ccccc1O [n-Hexyl salicylate]
